Measurements as given in ChEMBL document CHEMBL3739407, “Synthesis and SAR of Imidazo[1,5-a]pyridine derivatives as 5-HT4 receptor partial agonists for the treatment of cognitive disorders associated with Alzheimer's disease” (Eur J Med Chem, 2015).

Legend:
[1] = Oral bioavailability in Wistar rat at 10 mg/kg; type: ADME, organism-based; conditions: in vivo
[2] = Volume of distribution at steady state in Wistar rat at 10 mg/kg, po and 5 mg/kg, iv by LC-MS analysis; type: ADME, organism-based; conditions: in vivo, read-out: Vdss
[3] = Cmax in Wistar rat at 10 mg/kg, po and 5 mg/kg, iv; type: ADME, organism-based; conditions: in vivo
[4] = Ratio of drug level in brain to plasma in Wistar rat at 10 mg/kg, po and 5 mg/kg, iv; type: ADME, organism-based; conditions: read-out: BPR
[5] = AUC (0 to t) in beagle dog at 1 mg/kg, iv administered as 5 mins infusion; type: ADME, organism-based, Canis lupus familiaris; conditions: in vivo
[6] = Apparent volume of distribution in beagle dog at 1 mg/kg, iv administered as 5 mins infusion; type: ADME, organism-based, Canis lupus familiaris; conditions: in vivo, read-out: Vd(app)
[7] = Oral bioavailability in Wistar rat at 3 mg/kg; type: ADME, organism-based; conditions: in vivo
[8] = Apparent volume of distribution in Wistar rat at 1 mg/kg, iv; type: ADME, organism-based; conditions: in vivo, read-out: Vd(app)
[9] = Tmax in beagle dog at 1 mg/kg, po; type: ADME, organism-based, Canis lupus familiaris; conditions: in vivo
[10] = AUC (0 to t) in Wistar rat at 1 mg/kg, iv; type: ADME, organism-based; conditions: in vivo
[11] = AUC (0 to t) in Wistar rat at 3 mg/kg, po; type: ADME, organism-based; conditions: in vivo
[12] = Apparent permeability of the compound in human Caco2 cells; type: ADME, cell-based; conditions: Caco-2
[13] = AUC (0 to t) in beagle dog at 1 mg/kg, po; type: ADME, organism-based, Canis lupus familiaris; conditions: in vivo
[14] = Cmax in beagle dog at 1 mg/kg, po; type: ADME, organism-based, Canis lupus familiaris; parameters: dose 1 mg/kg, route oral; conditions: in vivo
[15] = Oral bioavailability in beagle dog at 1 mg/kg; type: ADME, organism-based, Canis lupus familiaris; conditions: in vivo
[16] = Tmax in Wistar rat at 3 mg/kg, po; type: ADME, organism-based; conditions: in vivo
[17] = Cmax in Wistar rat at 3 mg/kg, po; type: ADME, organism-based; parameters: dose 3 mg/kg, route oral; conditions: in vivo

| bioavailability [1] [%] | Vd [2] [L/kg] | Cmax [3] [ng/mL] | Kp [4] | Structure (SMILES) | also measured |
| --- | --- | --- | --- | --- | --- |
| 3.7 | 5.3 | 74 | – | CC(C)c1nc(C(=O)NC2CCN(CC3CC3)CC2)c2ccccn12 | – |
| 10 | 4.7 | 166 | – | CC(C)c1nc(C(=O)NC2CCN(C(C)C)CC2)c2ccccn12 | – |
| 17 | 10.4 | 120 | 0.6 | CC(C)c1nc(C(=O)NC[C@@H]2[C@H]3CN(CC4CCOCC4)C[C@@H]23)c2ccccn12 | – |
| 26 | 3.7 | 188 | 0.31 | COCCCN1C[C@@H]2[C@@H](CNC(=O)c3nc(C(C)C)n4ccccc34)[C@@H]2C1 | AUC(0-t) at 5 min [5]: 1310 ng·h/mL; Vd [6]: 2.1 L/kg; bioavailability [7]: 26%; Vd [8]: 3.7 L/kg; Tmax [9]: 30 min; AUC(0-t) [10]: 389 ng·h/mL; AUC(0-t) [11]: 301 ng·h/mL; Papp [12]: 34.8 ×10⁻⁶ cm/s; AUC(0-t) [13]: 1220 ng·h/mL; Cmax [14]: 412 ng/mL; bioavailability [15]: 94%; Tmax [16]: 15 min; Cmax [17]: 188 ng/mL |
| 12 | 3.3 | 150 | 0.69 | COC(=O)N1CCC(CN2C[C@@H]3[C@@H](CNC(=O)c4nc(C(C)C)n5ccccc45)[C@@H]3C2)CC1 | – |
| 63 | 4.7 | 434 | 0.38 | CC(C)c1nc(C(=O)NC2CCN(CC3(O)CCOCC3)CC2)c2ccccn12 | – |
| 5 | 7.6 | 80 | 0.14 | CC(C)c1nc(C(=O)NC[C@@H]2[C@H]3CN(C(C)C)C[C@@H]23)c2ccccn12 | – |
| 98 | 4.6 | 1760 | 0.31 | CC(C)c1nc(C(=O)NC2CCN(C3CCOCC3)CC2)c2ccccn12 | – |
| 34 | 3.8 | 277 | 0.31 | CC(C)c1nc(C(=O)NC[C@@H]2[C@H]3CN(CC(C)(C)O)C[C@@H]23)c2ccccn12 | – |
| 1.5 | 4.9 | 8.1 | 0.38 | CC(C)c1nc(C(=O)NC[C@@H]2[C@H]3CN(CC(C)(C)F)C[C@@H]23)c2ccccn12 | – |
| 45 | 4 | 232 | 0.31 | CC(C)c1nc(C(=O)NCC2CCN(CC3CCOCC3)CC2)c2ccccn12 | – |
| 44 | 4.9 | 848 | 0.31 | COCCCN1CCC(NC(=O)c2nc(C(C)C)n3ccccc23)CC1 | – |
| 30 | 5.2 | 109 | 0.22 | COCCCN1CCC(CNC(=O)c2nc(C(C)C)n3ccccc23)CC1 | – |

| Structure (SMILES) | bioavailability [1] [%] | Vd [2] [L/kg] | Cmax [3] [ng/mL] | Kp [4] | also measured |
| --- | --- | --- | --- | --- | --- |
| CC(C)c1nc(C(=O)NC2CCN(CCF)CC2)c2ccccn12 | 11 | 2.9 | 99 | 1.46 | – |
